Data from patent US12157746B2, “Tetrahydro-1H-pyrazino[2,1-a]isoindolylquinoline compounds for the treatment of autoimmune disease” (F. HOFFMANN-LA ROCHE AG, priority 2018, dated 2024).

Biological target: T1, human TLR8 (Homo sapiens, UniProt Q9NR97)
T1 sequence (Q9NR97 27-1041): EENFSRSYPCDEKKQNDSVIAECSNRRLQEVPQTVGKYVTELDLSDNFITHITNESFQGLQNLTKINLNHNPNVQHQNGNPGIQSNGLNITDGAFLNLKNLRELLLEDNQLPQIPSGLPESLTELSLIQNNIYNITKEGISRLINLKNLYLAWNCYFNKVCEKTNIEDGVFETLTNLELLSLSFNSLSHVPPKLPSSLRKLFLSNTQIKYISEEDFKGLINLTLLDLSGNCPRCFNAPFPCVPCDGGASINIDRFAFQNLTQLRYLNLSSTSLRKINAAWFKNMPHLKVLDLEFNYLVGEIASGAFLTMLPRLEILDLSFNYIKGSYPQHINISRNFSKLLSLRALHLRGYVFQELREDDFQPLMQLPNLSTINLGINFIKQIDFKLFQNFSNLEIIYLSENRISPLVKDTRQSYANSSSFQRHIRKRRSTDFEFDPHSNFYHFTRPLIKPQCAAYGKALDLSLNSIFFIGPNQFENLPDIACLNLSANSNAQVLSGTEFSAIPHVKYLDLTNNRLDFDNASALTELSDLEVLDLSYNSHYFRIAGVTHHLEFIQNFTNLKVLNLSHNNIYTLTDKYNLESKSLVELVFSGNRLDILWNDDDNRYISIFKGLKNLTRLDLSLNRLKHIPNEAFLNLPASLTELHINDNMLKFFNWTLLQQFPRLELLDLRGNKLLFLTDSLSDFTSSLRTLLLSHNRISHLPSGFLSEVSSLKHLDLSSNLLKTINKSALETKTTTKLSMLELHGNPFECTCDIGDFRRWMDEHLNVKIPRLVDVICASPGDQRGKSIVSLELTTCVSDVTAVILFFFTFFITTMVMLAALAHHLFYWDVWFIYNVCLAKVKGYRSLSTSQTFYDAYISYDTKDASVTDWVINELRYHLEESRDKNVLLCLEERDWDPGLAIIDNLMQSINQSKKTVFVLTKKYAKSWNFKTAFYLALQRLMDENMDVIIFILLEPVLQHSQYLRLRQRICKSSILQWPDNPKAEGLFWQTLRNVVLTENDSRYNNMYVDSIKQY
Experiment: HEK293-Blue-hTLR-8 cells assay
Format: cell-based
Conditions: HEK293-Blue-hTLR8 cells, R848 stimulation, 20 hrs, SEAP reporter; read-out: HEK/hTLR8 IC50
Text: HEK293-Blue-hTLR-8 Cells Assay:
A stable HEK293-Blue-hTLR-8 cell line was purchased from InvivoGen (Cat. #: hkb-htlr8, San Diego, California, USA). These cells were originally designed for studying the stimulation of human TLR8 by monitoring the activation of NF-κB. A SEAP (secreted embryonic alkaline phosphatase) reporter gene was placed under the control of the IFN-β minimal promoter fused to five NF-κB and AP-1-binding sites. The SEAP was induced by activating NF-κB and AP-1 via stimulating HEK-Blue hTLR8 cells with TLR8 ligands. Therefore the reporter expression was declined by TLR8 antagonist under the stimulation of a ligand, such as R848, for incubation of 20 hrs. The cell culture supernatant SEAP reporter activity was determined using QUANTI-Blue™kit (Cat. #: rep-qb1, Invivogen, San Diego, Ca, USA) at a wavelength of 640 nm, a detection medium that turns purple or blue in the presence of alkaline phosphatase.
HEK293-Blue-hTLR8 cells were incubated at a density of 250,000-450,000 cells/mL in a volume of 170 μL in a 96-well plate in Dulbecco's Modified Eagle's medium (DMEM) containing 4.5 g/L glucose, 50 U/mL penicillin, […], […], 2 mM L-glutamine, 10% (v/v) heat-inactivated fetal bovine serum with addition of 20 μL test compound 1n a serial dilution in the presence of final DMSO at 1% and 10 μL of 60 uM R848 in above DMEM, perform incubation under 37° C. in a CO2 incubator for 20 hrs. Then 20 μL of the supernatant from each well was incubated with 180 μL Quanti-blue substrate solution at 37° C. for 2 hrs and the absorbance was read at 620-655 nm using a spectrophotometer. The signaling pathway that TLR8 activation leads to downstream NF-κB activation has been widely accepted, and therefore similar reporter assay was modified for evaluating TLR8 antagonist.

`CO[C@H]1CN(c2ccc3c(c2)CN2[C@H](C)CN(c4ccc(C#N)c5ncccc45)C[C@H]32)C[C@@H]1N` (relative stereo) [Example 16, 5-[(4R,10bS)-8-[trans-3-amino-4-methoxy-pyrrolidin-1-yl]-4-methyl-3,4,6,10b-tetrahydro-1H-pyrazino[2,1-a]isoindol-2-yl]quinoline-8-carbonitrile] and `CO[C@@H]1CN(c2ccc3c(c2)CN2[C@H](C)CN(c4ccc(C#N)n5ncc(F)c45)C[C@H]32)C[C@H]1N` [Example 113, 4-[(4R,10bS)-8-[(3R,4R)-3-amino-4-methoxy-pyrrolidin-1-yl]-4-methyl-3,4,6,10b-tetrahydro-1H-pyrazino[2,1-a]isoindol-2-yl]-3-fluoro-pyrazolo[1,5-a]pyridine-7-carbonitrile] cannot be ordered by IC50: less than 3.2 nM for the first, 2 nM for the second.

Compared with `C[C@@H]1CN(c2ccc3c(c2)CN2[C@H](C)CN(c4ccc(C#N)n5nccc45)C[C@H]32)CCN1` [Example 97, 4-[(4R,10bS)-4-methyl-8-[(3R)-3-methylpiperazin-1-yl]-3,4,6,10b-tetrahydro-1H-pyrazino[2,1-a]isoindol-2-yl]pyrazolo[1,5-a]pyridine-7-carbonitrile], `C[C@@H]1CN(c2ccc(C#N)n3nccc23)C[C@@H]2c3ccc(N4CCOC[C@H](N)C4)cc3CN12` [Example 101, 4-[(4R,10bS)-8-[(6R)-6-amino-1,4-oxazepan-4-yl]-4-methyl-3,4,6,10b-tetrahydro-1H-pyrazino[2,1-a]isoindol-2-yl]pyrazolo[1,5-a]pyridine-7-carbonitrile] is 5.2-fold higher in IC50: 1 nM for the first, 5.2 nM for the second. The first is the more potent here.

Going from `C[C@@H]1CN(c2ccc(C#N)n3nccc23)C[C@@H]2c3ccc(N[C@H]4CNC[C@H]4F)cc3CN12` [Example 98, 4-[(4R,10bS)-8-[[(3S,4R)-4-fluoropyrrolidin-3-yl]amino]-4-methyl-3,4,6,10b-tetrahydro-1H-pyrazino[2,1-a]isoindol-2-yl]pyrazolo[1,5-a]pyridine-7-carbonitrile] to `C[C@@H]1CN(c2ccc(C#N)n3nccc23)C[C@@H]2c3ccc(N4CC5CNCC(C4)O5)cc3CN12` [Example 107, 4-[(4R,10bS)-4-methyl-8-(9-oxa-3,7-diazabicyclo[3.3.1]nonan-3-yl)-3,4,6,10b-tetrahydro-1H-pyrazino[2,1-a]isoindol-2-yl]pyrazolo[1,5-a]pyridine-7-carbonitrile], the IC50 rises from 8.8 nM to 16.5 nM (1.9-fold).

First: C[C@@H]1CN(c2ccc(C#N)n3nccc23)C[C@@H]2c3ccc(N4CC[C@@](C)(N)C4)cc3CN12 [Example 103, 4-[(4R,10bS)-8-[(3R)-3-amino-3-methyl-pyrrolidin-1-yl]-4-methyl-3,4,6,10b-tetrahydro-1H-pyrazino[2,1-a]isoindol-2-yl]pyrazolo[1,5-a]pyridine-7-carbonitrile]
Second: C[C@@H]1CN(c2ccc(C#N)n3nccc23)C[C@@H]2c3ccc(N4C[C@@H](N)[C@](C)(O)C4)cc3CN12 [Example 108, 4-[(4R,10bS)-8-[(3R,4R)-4-amino-3-hydroxy-3-methyl-pyrrolidin-1-yl]-4-methyl-3,4,6,10b-tetrahydro-1H-pyrazino[2,1-a]isoindol-2-yl]pyrazolo[1,5-a]pyridine-7-carbonitrile]
The IC50 of the first is 1.9-fold lower: 4.8 nM for the first, 8.9 nM for the second.

`CO[C@@H]1CN(c2ccc3c(c2)CN2[C@H](C)CN(c4ccc(C#N)n5nccc45)C[C@H]32)CC[C@H]1N` [Example 104, 4-[(4R,10bS)-8-[(3R,4R)-4-amino-3-methoxy-1-piperidyl]-4-methyl-3,4,6,10b-tetrahydro-1H-pyrazino[2,1-a]isoindol-2-yl]pyrazolo[1,5-a]pyridine-7-carbonitrile] and `CO[C@@H]1CN(c2ccc3c(c2)CN2[C@H](C)CN(c4ccc(C#N)n5nccc45)C[C@H]32)CC[C@@H]1N` [Example 105, 4-[(4R,10bS)-8-[(3R,4S)-4-amino-3-methoxy-1-piperidyl]-4-methyl-3,4,6,10b-tetrahydro-1H-pyrazino[2,1-a]isoindol-2-yl]pyrazolo[1,5-a]pyridine-7-carbonitrile] are within 1.5-fold of each other in IC50: 3.2 nM for the first, 4.1 nM for the second.

First: CO[C@H]1CCN(c2ccc3c(c2)CN2[C@H](C)CN(c4ccc(C#N)n5nccc45)C[C@H]32)C[C@H]1N [Example 106, 4-[(4R,10bS)-8-[(3R,4S)-3-amino-4-methoxy-1-piperidyl]-4-methyl-3,4,6,10b-tetrahydro-1H-pyrazino[2,1-a]isoindol-2-yl]pyrazolo[1,5-a]pyridine-7-carbonitrile]
Second: C[C@@H]1CN(c2ccc(C#N)n3nccc23)C[C@@H]2c3ccc(N4C[C@@H](N)[C@H](O)C4)cc3CN12 [Example 110, 4-[(4R,10bS)-8-[(3R,4R)-3-amino-4-hydroxy-pyrrolidin-1-yl]-4-methyl-3,4,6,10b-tetrahydro-1H-pyrazino[2,1-a]isoindol-2-yl]pyrazolo[1,5-a]pyridine-7-carbonitrile]
The IC50 of the first is 1.7-fold lower: 2.9 nM for the first, 5 nM for the second.

First: C[C@@H]1CN(c2ccc(C#N)n3nccc23)C[C@@H]2c3ccc(N4C[C@H](N)[C@@](C)(O)C4)cc3CN12 [Example 109, 4-[(4R,10bS)-8-[(3S,4S)-4-amino-3-hydroxy-3-methyl-pyrrolidin-1-yl]-4-methyl-3,4,6,10b-tetrahydro-1H-pyrazino[2,1-a]isoindol-2-yl]pyrazolo[1,5-a]pyridine-7-carbonitrile]
Second: C[C@@H]1CN(c2ccc(C#N)n3ncc(F)c23)C[C@@H]2c3ccc(N4C[C@H](N)[C@@](C)(O)C4)cc3CN12 [Example 112, 4-[(4R,10bS)-8-[(3S,4S)-4-amino-3-hydroxy-3-methyl-pyrrolidin-1-yl]-4-methyl-3,4,6,10b-tetrahydro-1H-pyrazino[2,1-a]isoindol-2-yl]-3-fluoro-pyrazolo[1,5-a]pyridine-7-carbonitrile]
The IC50 of the first is 1.9-fold higher: 6.7 nM for the first, 3.6 nM for the second. The second is the more potent here.

`C[C@@H]1CN(c2ccc(C#N)n3nccc23)C[C@@H]2c3ccc(N4C[C@H](N)[C@@H](O)C4)cc3CN12` [Example 111, 4-[(4R,10bS)-8-[(3S,4S)-3-amino-4-hydroxy-pyrrolidin-1-yl]-4-methyl-3,4,6,10b-tetrahydro-1H-pyrazino[2,1-a]isoindol-2-yl]pyrazolo[1,5-a]pyridine-7-carbonitrile] showed an IC50 of 2 nM.

Biological target: T2, hERG K+ channel (Homo sapiens, UniProt Q12809)
T2 construct: expressed in transfected cells; host or cells: CHO (Chinese hamster ovary) cells, CHOhERG
Experiment: hERG channel inhibition assay
Format: cell-based
Conditions: CHO cells expressing hERG, patch-clamp (voltage-clamp, whole-cell)
Protocol: hERG Channel Inhibition Assay
The hERG K^+ channels were cloned in humans and stably expressed in a CHO (Chinese hamster ovary) cell line. CHOhERG cells were used for patch-clamp (voltage-clamp, whole-cell) experiments. Cells were stimulated by a voltage pattern to activate hERG channels and conduct IKhERG currents (rapid delayed outward rectifier potassium current of the hERG channel). After the cells were stabilized for a few minutes, the amplitude and kinetics of IKhERG were recorded at a stimulation frequency of 0.1 Hz (6 bpm). Thereafter, the test compound was added to the preparation at increasing concentrations. For each concentration, an attempt was made to reach a steady-state effect, usually, this was achieved within 3-10 min at which time the next highest concentration was applied. The amplitude and kinetics of IKhERG are recorded in each concentration of the drug which were compared to the control values (taken as 100%). (references: Redfem W S, Carlsson L, Davis A S, Lynch W G, MacKenzie I, Palethorpe S, Siegl P K, Strang I, Sullivan A T, Wallis R, Camm A J, Hammond T G. 2003; Relationships between preclinical cardiac electrophysiology, clinical QT interval prolongation and torsade de pointes for a broad range of drugs: evidence for a provisional safety margin in drug development. Cardiovasc. Res. 58:32-45, Sanguinetti M C, Tristani-Firouzi M. 2006; hERG potassium channels and cardiac arrhythmia. Nature 440:463-469, Webster R, Leishman D, Walker D. 2002; Towards a drug concentration effect relationship for QT prolongation and torsades de pointes. Curr. Opin. Drug Discov. Devel. 5:116-26).

T2 sequence (Q12809 whole entry): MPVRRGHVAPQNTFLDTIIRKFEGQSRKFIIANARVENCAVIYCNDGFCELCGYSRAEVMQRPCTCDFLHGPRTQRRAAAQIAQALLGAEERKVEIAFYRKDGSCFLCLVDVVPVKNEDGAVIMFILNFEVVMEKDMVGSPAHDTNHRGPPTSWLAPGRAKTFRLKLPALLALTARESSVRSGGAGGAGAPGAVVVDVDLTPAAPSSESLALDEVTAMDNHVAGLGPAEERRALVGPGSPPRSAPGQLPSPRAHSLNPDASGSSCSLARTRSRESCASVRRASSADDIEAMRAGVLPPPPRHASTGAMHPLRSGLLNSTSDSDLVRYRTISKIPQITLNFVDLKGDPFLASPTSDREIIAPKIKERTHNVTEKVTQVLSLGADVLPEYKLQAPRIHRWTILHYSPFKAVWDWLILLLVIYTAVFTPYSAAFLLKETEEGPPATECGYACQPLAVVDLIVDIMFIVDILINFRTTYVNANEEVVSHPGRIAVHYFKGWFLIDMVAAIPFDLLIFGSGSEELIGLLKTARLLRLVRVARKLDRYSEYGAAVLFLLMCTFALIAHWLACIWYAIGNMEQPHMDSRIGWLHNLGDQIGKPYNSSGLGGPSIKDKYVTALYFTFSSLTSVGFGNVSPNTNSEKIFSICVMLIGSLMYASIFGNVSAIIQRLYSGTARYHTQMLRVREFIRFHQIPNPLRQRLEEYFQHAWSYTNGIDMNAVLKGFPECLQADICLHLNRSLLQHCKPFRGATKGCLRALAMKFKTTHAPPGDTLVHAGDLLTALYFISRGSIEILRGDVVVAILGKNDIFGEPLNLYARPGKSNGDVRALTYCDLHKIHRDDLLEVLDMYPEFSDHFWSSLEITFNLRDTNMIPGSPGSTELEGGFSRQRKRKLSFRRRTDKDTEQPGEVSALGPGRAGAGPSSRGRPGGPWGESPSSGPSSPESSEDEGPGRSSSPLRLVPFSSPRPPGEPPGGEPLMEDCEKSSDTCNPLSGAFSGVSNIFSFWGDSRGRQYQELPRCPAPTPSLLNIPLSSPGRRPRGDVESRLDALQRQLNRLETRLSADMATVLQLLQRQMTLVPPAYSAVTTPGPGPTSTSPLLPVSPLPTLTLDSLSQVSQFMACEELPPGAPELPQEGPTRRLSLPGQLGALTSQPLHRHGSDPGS

Molecule `CO[C@H]1CN(c2ccc3c(c2)CN2[C@H](C)CN(c4ccc(C#N)c5ncccc45)C[C@H]32)C[C@@H]1N` (relative stereo) [Example 16, 5-[(4R,10bS)-8-[trans-3-amino-4-methoxy-pyrrolidin-1-yl]-4-methyl-3,4,6,10b-tetrahydro-1H-pyrazino[2,1-a]isoindol-2-yl]quinoline-8-carbonitrile] has an IC50 greater than 20000 nM.

Same assay, conditions: human, CHO cells stably expressing hERG, patch-clamp (voltage-clamp, whole-cell)

In the case of `CO[C@H]1CN(c2ccc3c(c2)CN2[C@H](C)CN(c4ccc(C#N)c5ncccc45)C[C@H]32)C[C@@H]1N` (relative stereo) [Example 16, 5-[(4R,10bS)-8-[trans-3-amino-4-methoxy-pyrrolidin-1-yl]-4-methyl-3,4,6,10b-tetrahydro-1H-pyrazino[2,1-a]isoindol-2-yl]quinoline-8-carbonitrile], the IC20 is reported as greater than 10000 nM.
